Results published in patent US20240425491A1, “HETEROARYL COMPOUNDS USEFUL IN THE TREATMENT OF COGNITIVE DISORDERS” (University College Cardiff Consultants Limited, priority 2021, published 2024).
Counter-ions that a name gives are not always drawn.

Target: T1, human recombinant GABAAR containing α5β3γ2 subunits (benzodiazepine site) (Homo sapiens, UniProt P18507+P31644)
T1 construct: expressed in transfected cells; host or cells: mouse L(tk−) cells, dexamethasone-inducible vector pMSGneo
Experiment: In vitro radioligand binding assay (α5-GABAAR Ki)
Conditions: not given
From the text: Mouse L(tk^−) cells stably expressing human α1β3γ2, α2β3γ2, α3β3γ2, α5β3γ2 GABAARs generated by transfection of the individual subunits in the dexamethasone-inducible expression vector pMSGneo in mouse L(tk^−) cells (Hadingham et al., 1993, Mol. Pharmacol. 43:970-975 and 1993, Mol. Pharmacol. 44:1211-1218) were used for binding and functional assays. For certain compounds, HEK293 cells stable expressing the human α1β3γ2L, α2β3γ2L, α3β3γ2L and α5β3γ2L GABAA receptors were used to evaluate their functional effects in a SyncroPatch electrophysiology assay.
L(tk^−) cells stably expressing human α1β3γ2, α2β3γ2, α3β3γ2, α5β3γ2 GABAARs were maintained in DMEM F12 medium supplemented with 10% Foetal Bovine Serum, 1% Penicillin/Streptomycin and 1 mg/mL Geneticin G418 in an incubator at 37° C. with a humidified atmosphere with 5% CO2.
The affinity (Ki) of compounds for the benzodiazepine site of human recombinant GABAARs was measured by their ability to inhibit the binding of the selective benzodiazepine antagonist [^3H] Ro15-1788 ([^3H] flumazenil).
L(tk^−) cells expressing human recombinant GABAAR containing α1β3γ2, α2β3γ2, α3β3γ2, α5β3γ2 subunits were harvested and membranes were prepared for each receptor combination in phosphate buffer (K2PO4 10 mM, pH 7.0) (Hadingham et al. (1992) Proc. Natl. Acad. Sci. USA; 89 (14): 6378-82). Protein concentration, receptor expression and the Kd of [^3H] Ro15-1788 were determined before Ki values of compounds were evaluated. For Kd evaluation, saturation binding curves were obtained by incubating membrane with various concentrations of [^3H] Ro15-1788 (82.5 Ci/mM), with nonspecific binding measured in the presence of 1 μM TP003.
For Ki evaluation, cell membranes were incubated with 4 nM [^3H] Ro15-1788 along with a range of concentrations of test compound. Nonspecific binding was determined using 1 μM TP003. All incubations were performed for 1 hour at 4° C. in assay buffer. The total assay volume was 0.5 mL, containing 100 μg membrane protein/well α1β3γ2, α2β3γ2, α3β3γ2 and 50 μg membrane protein/well for α53γ2. Incubations were terminated by filtration and washing with ice cold Tris-HCl buffer (50 mM, pH=7.4) over Whatman GF/B filters and the radioactivity of the filters was measured using liquid scintillation counting.
The % inhibition of [^3H] Ro15-1788 binding was plotted as a function of compound concentration and the IC50 calculated. From the IC50, the affinity (Ki) was calculated using the method of Cheng and Prusoff using the Kd values obtained for [^3H] Ro15-1788.

T1 sequence (P31644 32-462): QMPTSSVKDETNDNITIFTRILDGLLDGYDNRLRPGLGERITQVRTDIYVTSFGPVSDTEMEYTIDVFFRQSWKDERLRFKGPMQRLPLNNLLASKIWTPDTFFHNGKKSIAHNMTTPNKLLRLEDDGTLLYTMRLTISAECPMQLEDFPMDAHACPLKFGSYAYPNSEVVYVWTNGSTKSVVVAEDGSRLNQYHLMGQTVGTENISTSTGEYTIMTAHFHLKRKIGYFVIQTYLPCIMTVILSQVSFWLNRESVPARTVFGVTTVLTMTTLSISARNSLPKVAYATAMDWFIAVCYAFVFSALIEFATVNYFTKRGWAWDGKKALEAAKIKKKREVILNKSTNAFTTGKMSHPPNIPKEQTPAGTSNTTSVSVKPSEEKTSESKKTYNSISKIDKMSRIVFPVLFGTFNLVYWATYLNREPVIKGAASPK
T1 sequence (P28472 26-473 partner): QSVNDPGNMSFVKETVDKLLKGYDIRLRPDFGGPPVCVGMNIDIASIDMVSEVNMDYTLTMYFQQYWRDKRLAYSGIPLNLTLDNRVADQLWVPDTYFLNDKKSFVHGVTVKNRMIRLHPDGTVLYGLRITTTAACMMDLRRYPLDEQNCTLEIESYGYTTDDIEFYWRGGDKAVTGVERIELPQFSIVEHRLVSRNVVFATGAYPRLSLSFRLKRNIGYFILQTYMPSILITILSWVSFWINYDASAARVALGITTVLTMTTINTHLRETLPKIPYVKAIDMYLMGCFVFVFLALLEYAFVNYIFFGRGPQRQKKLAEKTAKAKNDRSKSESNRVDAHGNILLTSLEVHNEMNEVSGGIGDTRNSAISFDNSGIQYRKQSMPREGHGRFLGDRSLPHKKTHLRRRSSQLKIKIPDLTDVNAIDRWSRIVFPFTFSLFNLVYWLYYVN
T1 sequence (P18507 40-475): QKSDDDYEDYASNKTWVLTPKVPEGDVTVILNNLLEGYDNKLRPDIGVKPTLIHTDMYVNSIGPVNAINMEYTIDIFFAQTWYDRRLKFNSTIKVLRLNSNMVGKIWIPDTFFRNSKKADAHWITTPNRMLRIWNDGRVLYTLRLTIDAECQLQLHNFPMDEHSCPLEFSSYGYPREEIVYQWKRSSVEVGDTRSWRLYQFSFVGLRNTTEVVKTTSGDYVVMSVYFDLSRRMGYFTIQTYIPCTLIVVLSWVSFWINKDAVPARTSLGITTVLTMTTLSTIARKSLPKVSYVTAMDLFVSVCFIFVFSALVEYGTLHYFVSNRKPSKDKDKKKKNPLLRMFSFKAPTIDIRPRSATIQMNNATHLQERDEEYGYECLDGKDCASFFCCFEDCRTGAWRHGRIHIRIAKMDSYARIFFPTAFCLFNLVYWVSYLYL

| SMILES | Ki |
| --- | --- |
| COc1cc2c(-c3ccc(NC(=O)c4c(-c5ccccc5)noc4C)c(OC)n3)cn(C)c2cn1 [Example 109, N-(2-Methoxy-6-(5-methoxy-1-methyl-1H-pyrrolo[2,3-c]pyridin-3-yl)pyridin-3-yl)-5-methyl-3-phenylisoxazole-4-carboxamide] | 47.2 nM |

Same assay, conditions: inhibition of [3H]Ro15-1788 binding, membranes of L(tk−) cells expressing human α5β3γ2; read-out: α5-GABAAR Ki

| Ki | SMILES |
| --- | --- |
| 297 nM | COc1nc(-c2ccc(SC(F)(F)F)nc2)ccc1NC(=O)c1c(-c2ccccc2)noc1C [Example 76, N-(6-Methoxy-6′-((trifluoromethyl)thio)-[2,3′-bipyridin]-5-yl)-5-methyl-3-phenyl-isoxazole-4-carboxamide] |
| 26.6 nM | COc1nc(-c2ccc(OC(F)F)nc2)ccc1NC(=O)c1c(-c2ccccc2)noc1C [Example 88, N-(6′-(Difluoromethoxy)-6-methoxy-[2,3′-bipyridin]-5-yl)-5-methyl-3-phenyl-isoxazole-4-carboxamide] |
| 6.3 nM | COc1nc(-c2cnc3c(c2)CC(=O)N3)ccc1NC(=O)c1c(-c2ccccc2)noc1C [Example 114, N-(2-Methoxy-6-(2-oxo-2,3-dihydro-1H-pyrrolo[2,3-b]pyridin-5-yl)pyridin-3-yl)-5-methyl-3-phenylisoxazole-4-carboxamide] |
| 27.2 nM | COc1nc(-c2ccc3c(N)n[nH]c3c2)ccc1NC(=O)c1c(-c2ccccc2)noc1C [Example 35, N-[6-(3-Amino-1H-indazol-6-yl)-2-methoxy-3-pyridyl]-5-methyl-3-phenyl-isoxazole-4-carboxamide] |
| 154 nM | COc1nc(-c2ccccn2)ccc1NC(=O)c1c(-c2ccccc2)noc1C [Example 73, N-[2-Methoxy-6-(2-pyridyl)-3-pyridyl]-5-methyl-3-phenyl-isoxazole-4-carboxamide] |
| 115 nM | COc1nc(-c2ccc3cn[nH]c3c2)ccc1NC(=O)c1c(-c2ccccc2)noc1C [Example 34, N-[6-(1H-Indazol-6-yl)-2-methoxy-3-pyridyl]-5-methyl-3-phenyl-isoxazole-4-carboxamide] |
| 3.3 nM | COc1nc(-c2ccc(CN3CC4(COC4)C3)cc2)ccc1NC(=O)c1c(-c2ccccc2)noc1C [Example 226, N-[2-methoxy-6-[4-(2-oxa-6-azaspiro[3.3]heptan-6-ylmethyl)phenyl]-3-pyridyl]-5-methyl-3-phenyl-isoxazole-4-carboxamide] |
| 57.6 nM | COc1nc(-c2nccn3ccnc23)ccc1NC(=O)c1c(-c2ccccc2)noc1C [Example 38, N-(6-Imidazo[1,2-a]pyrazin-8-yl-2-methoxy-3-pyridyl)-5-methyl-3-phenyl-isoxazole-4-carboxamide] |
| 21.9 nM | COc1nc(-c2cccnn2)ccc1NC(=O)c1c(-c2ccccc2)noc1C [Example 64, N-(2-Methoxy-6-pyridazin-3-yl-3-pyridyl)-5-methyl-3-phenyl-isoxazole-4-carboxamide] |
| 8.8 nM | COc1nc(-c2ccc(CN)cc2)ccc1NC(=O)c1c(-c2ccccc2)noc1C [Example 182, N-[6-[4-(Aminomethyl)phenyl]-2-methoxy-3-pyridyl]-5-methyl-3-phenyl-isoxazole-4-carboxamide hydrochloride] |
| 137 nM | COc1nc(-c2cnc3[nH]ccc3c2)ccc1NC(=O)c1c(-c2ccccc2)noc1C [Example 118, N-(2-Methoxy-6-(1H-pyrrolo[2,3-b]pyridin-5-yl)pyridin-3-yl)-5-methyl-3-phenylisoxazole-4-carboxamide] |
| 80.6 nM | COc1nc(-c2cnn3cccnc23)ccc1NC(=O)c1c(-c2ccccc2)noc1C [Example 112, N-(2-Methoxy-6-(pyrazolo[1,5-a]pyrimidin-3-yl)pyridin-3-yl)-5-methyl-3-phenylisoxazole-4-carboxamide] |
| 236 nM | COc1nc(-c2nccs2)ccc1NC(=O)c1c(-c2ccccc2)noc1C [Example 66, N-(2-Methoxy-6-thiazol-2-yl-3-pyridyl)-5-methyl-3-phenyl-isoxazole-4-carboxamide] |
| 232 nM | COc1nc(-c2ccsn2)ccc1NC(=O)c1c(-c2ccccc2)noc1C [Example 69, N-(6-Isothiazol-3-yl-2-methoxy-3-pyridyl)-5-methyl-3-phenyl-isoxazole-4-carboxamide] |

The next lines start with the molecule.

| SMILES | Ki |
| --- | --- |
| COc1nc(-c2nn[nH]n2)ccc1NC(=O)c1c(-c2ccccc2)noc1C [Example 122, N-[2-Methoxy-6-(2H-tetrazol-5-yl)-3-pyridyl]-5-methyl-3-phenyl-isoxazole-4-carboxamide] | 126 nM |
| Cc1onc(-c2ccccc2)c1C(=O)Nc1ccc(-n2ccnc2)[nH]c1=O [Example 212, N-(6-Imidazol-1-yl-2-oxo-1H-pyridin-3-yl)-5-methyl-3-phenyl-isoxazole-4-carboxamide] | 313 nM |
| COc1nc(-n2ccnc2)ccc1NC(=O)c1c(-c2ccccn2)noc1C [Example 146, N-(6-Imidazol-1-yl-2-methoxy-3-pyridyl)-5-methyl-3-(2-pyridyl) isoxazole-4-carboxamide] | 79 nM |
| CNc1nc(C)c(-c2ccc(NC(=O)c3c(-c4ccccc4)noc3C)c(OC)n2)c(C)n1 [Example 194, N-(6-(4,6-Dimethyl-2-(methylamino)pyrimidin-5-yl)-2-methoxypyridin-3-yl)-5-methyl-3-phenylisoxazole-4-carboxamide] | 38.7 nM |
| COc1nc(-c2cncnc2)ccc1NC(=O)c1c(C)nnn1-c1ccccc1 [Example 157, N-(2-Methoxy-6-(pyrimidin-5-yl)pyridin-3-yl)-4-methyl-1-phenyl-1H-1,2,3-triazole-5-carboxamide] | 45.8 nM |
| COc1nc(-c2ncccn2)ccc1NC(=O)c1c(-c2ccccc2)noc1C [Example 63, N-(2-Methoxy-6-pyrimidin-2-yl-3-pyridyl)-5-methyl-3-phenyl-isoxazole-4-carboxamide] | 32.6 nM |
| COc1nc(-c2cnc(N)c(OC)n2)ccc1NC(=O)c1c(-c2ccccc2)noc1C [Example 39, N-[6-(5-Amino-6-methoxy-pyrazin-2-yl)-2-methoxy-3-pyridyl]-5-methyl-3-phenyl-isoxazole-4-carboxamide] | 32.3 nM |
| COc1nc(-c2cc(OC)c3cn[nH]c3c2)ccc1NC(=O)c1c(-c2ccccc2)noc1C [Example 32, N-[2-Methoxy-6-(4-methoxy-1H-indazol-6-yl)-3-pyridyl]-5-methyl-3-phenyl-isoxazole-4-carboxamide] | 110 nM |
| COc1nc(-c2cnc(N(C)C)c(Cl)c2)ccc1NC(=O)c1c(-c2ccccc2)noc1C [Example 98, N-(5′-Chloro-6′-(dimethylamino)-6-methoxy-[2,3′-bipyridin]-5-yl)-5-methyl-3-phenylisoxazole-4-carboxamide] | 664 nM |
| COc1nc(-c2nnn(C)c2C)ccc1NC(=O)c1c(-c2ccccc2)noc1C [Example 101, N-(6-(1,5-Dimethyl-1H-1,2,3-triazol-4-yl)-2-methoxypyridin-3-yl)-5-methyl-3-phenylisoxazole-4-carboxamide] | 45.1 nM |
| Cc1onc(-c2ccccc2)c1C(=O)Nc1ccc(-c2cnoc2)nc1OC(C)C [Example 227, N-(2-isopropoxy-6-(isoxazol-4-yl)pyridin-3-yl)-5-methyl-3-phenyl-isoxazole-4-carboxamide] | 0.5 nM |
| COc1nc(-c2c(C)n[nH]c2C)ccc1NC(=O)c1c(-c2ccccc2)noc1C [Example 25, N-[6-(3,5-Dimethyl-1H-pyrazol-4-yl)-2-methoxy-3-pyridyl]-5-methyl-3-phenyl-isoxazole-4-carboxamide] | 34.2 nM |
| COc1nc(-c2cnc(C(C)(C)O)nc2)ccc1NC(=O)c1c(-c2ccccc2)noc1C [Example 201, N-[6-[2-(1-Hydroxy-1-methyl-ethyl)pyrimidin-5-yl]-2-methoxy-3-pyridyl]-5-methyl-3-phenyl-isoxazole-4-carboxamide] | 35.4 nM |
| CNc1ncc(-c2ccc(NC(=O)c3c(-c4ccccc4)noc3C)c(OC)n2)c(C)n1 [Example 192, N-[2-Methoxy-6-[4-methyl-2-(methylamino)pyrimidin-5-yl]-3-pyridyl]-5-methyl-3-phenyl-isoxazole-4-carboxamide] | 1.2 nM |
| CNc1nc(-n2ccnc2)ccc1NC(=O)c1c(-c2ccccc2)noc1C [Example 177, N-(6-(1H-Imidazol-1-yl)-2-(methylamino)pyridin-3-yl)-5-methyl-3-phenylisoxazole-4-carboxamide] | 545 nM |
